The structures appear in SMILES notation.

Here are results for 2 molecules from patent US10736968B2, “Cellular signalling inhibitors, their formulations and methods thereof” (INVICTUS ONCOLOGY PVT. LTD., priority 2016, dated 2020).

The subject of this assay is 4T1 breast cancer. The experiment in a line: 4T1 breast cancer model (tumor growth, lung metastatic nodules, survival). It counts as in vivo, Balb/c mice. As to conditions: for number of metastatic nodules in lungs: lungs harvested on day 12. From the text:
FIG. 7. Effect of BLN101 on breast tumor growth inhibition. To validate the therapeutic efficacy of BLN101 (as AK750 formulation), we randomly sorted mice bearing 4T1 breast cancer into four groups and treated each group with one of the following: blank vehicle (control); AK750; an antiCSF1 antibody, and BLZ945. Treatment was strated when the tumors reached −75 mm^3 in volume. The day of first injection is considered Day 0). Vehicle-treated animals formed large tumors by Day 12, and consequently were killed. The animals in the other groups were also killed at the same time point to evaluate the effect of the treatments on tumor pathology. […] (b) Changes in body weight were within the acceptable limits.
Later, macrophages are isolated from the tumors and analyzed the cells for expression of markers CD11b+CD206+, CD11b+MHC-II+, CD11b+CD86+ and CD11b+CD80+ on the cells using flow cytometry. […] The tumor-bearing animals are injected with three doses of either Vehicle (for control group), 45 mg/kg of free BLZ-945, 45 mg/kg of BLN101 (in a AK750 formulation), or 25 mg/kg of CSF-1 neutralizing antibody, on day 0, day 4 and day 8. First day of treatment was considered as Day 0. […] Number of metastatic nodules present in the lungs is also quantified. Lungs were harvested from the mice on day 12 following the above treatment, washed with cold PBS followed by which the number of metastatic nodules were counted. […] Later, macrophages are isolated from the tumors and analyzed the cells for expression of markers CD11b+CD206+, CD11b+MHC-II+, CD11b+CD86+ on the cells using flow cytometry. […] SIRPα is a ‘eat-me-not’ signaling, which cancer cells engage with a CD47 ligand, and prevents phagocytosis of the cancer cells. The antibody that inhibits SIRPα was conjugated to the PEG chains on the surface of the AK750 supramolecular nanoparticles. A non-specific IgG was used as controls. […] Furthermore, melanoma-bearing mice is treated with a single dose of SIRPα antibody, AK750 or the SIRPα-AK750. […]

On to `CNC(=O)c1cc(Oc2ccc3nc(N[C@@H]4CCCC[C@H]4O)sc3c2)ccn1` [BLZ-945], for which the “number of metastatic nodules in lungs” value is “reduction as compared to CSF-1 neutralizing antibody and the vehicle control”. Moreover, the “tumor growth / progression” value (45 mg/kg on day 0, day 4 and day 8) is “decreased tumor growth compared with vehicle-treated animals”. For `CNC(=O)c1cc(Oc2ccc3nc(NC4CCCC[C@H]4OC(=O)CCC(=O)O[C@H]4CC[C@@]5(C)C(=CC[C@H]6[C@@H]7CC[C@H](C(C)CCCC(C)C)[C@@]7(C)CC[C@@H]65)C4)sc3c2)ccn1` (stereo in doubt) [BLN101], the “number of metastatic nodules in lungs” value is listed as “complete inhibition of formation of metastatic nodules”.
